{
  "source": "patent US20140357512A1",
  "about": "“HISTONE DEACETYLASE (HDAC) BIOMARKERS IN MULTIPLE MYELOMA” (priority 2013, published 2014)",
  "system": "human myeloma cell line MM.1S",
  "assay": "SILAC acetylated-lysine peptide profiling, HDAC inhibitor vs DMSO (light/heavy ratio)",
  "assay_type": "cell-based",
  "description": "An embodiment of the invention comprises utilizing the SILAC method in order to quantitate changes in protein expression between two or more populations of cells. The SILAC method is a technique based on mass spectrometry that detects differences in protein abundance among samples using non-radioactive isotopic labeling. The SILAC method is known in the art, and described in detail in Ong et al., “Stable Isotope Labeling by Amino Acids in Cell Culture, SILAC, as a Simple and Accurate Approach to Expression Proteomics”, Molecular & Cellular Proteomics, vol. 1, pp. 376-386 (2002), which is incorporated herein by reference in its entirety.\nBriefly, the SILAC method involves growing two populations of cells in cell culture. The first population of cells is grown in growth media containing normal amino acids (“normal media”). The second population of cells is grown in media lacking a standard essential amino acid (such as lysine), but is then supplemented with a non-radioactive, isotopically labeled form of that essential amino acid (such as lysine labeled with ^13C atoms, rather than normal ^12C atoms), which is called “heavy media”. When the two populations of cells are each growing in the medium, they incorporate the amino acids into all of their proteins. The growth of cells maintained in the heavy media is no different from that in normal media. All peptides containing the heavy amino acids are heavier than their normal counterparts. The cells from each of the two populations of cells are lysed. The lysates from each of the two cell populations are then combined. The combined cell lysates are then analyzed by mass spectrometry. Pairs of chemically identical peptides of different stable isotope composition can be differentiated in a mass spectrometer due to their difference in mass. The ratio of peak intensities in the mass spectrum for such peptide pairs reflects the abundance ratio for the two proteins.\nThis example describes SILAC studies that were performed to compare the effects of three different HDAC inhibitors (Compound A, Compound B, and tubastatin A) to a control on a human multiple myeloma cell line. The HDAC inhibitors were also compared amongst themselves to determine differences in their effects.\nA human myeloma cell line MM.1S was grown using either ^12C (light) or ^13C (heavy) lysine containing culture medium. The “heavy” cells were treated with DMSO as the control, and the “light” cells were treated with a single HDAC inhibitor at 37° C. for 6 hours. The heavy and light cells were lysed, and the lysates were mixed in 1:1 ratio and digested with the protease trypsin. The acetylated lysine containing peptides (due to the action of the HDAC inhibitor) in the digested peptide pool were captured by a non-specific anti-acetylated lysine antibody cocktail (the antibodies identify both light and heavy acetylated peptides), and subjected to mass spectrometry analysis in order to identify thousands of individual peptides.\nThousands of peptides were identified in pairs (^12C and ^13C) due to their known mass differences. The amino acid sequence and quantitative ratio (Light/Heavy) of a given peptide in two differentially treated cell lysates were then determined and annotated with their possible protein (gene) sources.\nAs stated above, three HDAC inhibitors (Compound A, Compound B, and Tubastatin A) were used. Thus, the SILAC method was performed three times, with a different HDAC inhibitor compared to a control each time. Accordingly, there are three pairs of quantitative data in the table below, i.e., Compound A:DMSO, Compound B:DMSO, and Tubastatin A:DMSO. A cut-off of 1.30 fold of change (increase or decrease) was then used to determine “changed” or “+” in the table, and any peptides with a fold of change less than 1.3 fold were determined to be “unchanged” or “0” in the table. Those peptides that were not identified were marked as “NA” in the table. […]",
  "data": [
    {"smiles": "O=C(NO)c1cnc(NC2(c3cccc(F)c3)CCCCC2)nc1", "note": "[Compound B, 2-((1-(3-fluorophenyl)cyclohexyl)amino)-N-hydroxypyrimidine-5-carboxamide]", "values": [
      {"measurement": "L/H ratio of acetylated peptide […](ac)SHR (SEQ ID NO: 56)", "setting": "IGLV2-14, IGLC2 [208], log 2 scale, drug vs DMSO", "value": 0.00},
      {"measurement": "light to heavy ratio (L/H ratio) of acetylated peptide, log 2 scale", "setting": "IGQGYLIK(ac)DGK (SEQ ID NO: 249), 60S ribosomal protein L3 [294], SNORD43, RPL3", "value": 0.00},
      {"measurement": "L/H ratio of acetylated peptide", "setting": "IIWHK(ac)FK (SEQ ID NO: 419), Isoform 1 of 39S ribosomal protein L47 mitochondrial [180], MRPL47", "value": "−0.73", "unit": "log 2"},
      {"measurement": "light to heavy ratio (L/H ratio) of acetylated peptide, log 2 scale", "setting": "IMK(ac)DLDQCR (SEQ ID NO: 217), Protein S100-A10 [57], S100A10", "value": 0.00},
      {"measurement": "L/H ratio of acetylated peptide", "setting": "IMK(ac)SEVLR (SEQ ID NO: 434), 26S protease regulatory subunit 6A [56], PSMC3", "value": 0.41, "unit": "log 2"},
      {"measurement": "L/H ratio of acetylated peptide", "setting": "IMQK(ac)YGFR (SEQ ID NO: 440), Splicing factor 45 [245], RBM17", "value": "−0.50", "unit": "log 2"},
      {"measurement": "light to heavy ratio (L/H ratio) of acetylated peptide, log 2 scale", "setting": "IQDK(ac)EGIPPDQQR (SEQ ID NO: 212), Ubiquitin-40S ribosomal protein S27a [33], RPS27A", "value": 0.00},
      {"measurement": "L/H ratio of acetylated peptide", "setting": "IQFK(ac)QDDGTGPEK (SEQ ID NO: 412), Isoform 1 of Far upstream element-binding protein 2 [359], KHSRP", "value": 0.61, "unit": "log 2"},
      {"measurement": "light to heavy ratio (L/H ratio) of acetylated peptide, log 2 scale", "setting": "ISK(ac)EVLAGR (SEQ ID NO: 167), Isoform Short of Heterogeneous nuclear ribonucleoprotein U [417], HNRNPU", "value": 0.00},
      {"measurement": "L/H ratio of acetylated peptide", "setting": "IYHPNVDK(ac)LGR (SEQ ID NO: 462), Ubiquitin-conjugating enzyme E2 N [82], UBE2N", "value": "−0.70", "unit": "log 2"},
      {"measurement": "light to heavy ratio (L/H ratio), log 2 scale, acetylated peptide LMK(ac)ICMNEDPAK (SEQ ID NO: 800)", "setting": "Integrin-linked protein kinase [426], gene ILK, drug:DMSO", "value": 0.00},
      {"measurement": "light to heavy ratio (L/H ratio) of acetylated peptide HAHGDQYK(ac)ATDFVADR (SEQ ID NO: 574)", "setting": "Isocitrate dehydrogenase [NADP] mitochondrial [180], gene IDH2, inhibitor:DMSO", "value": 0.00, "unit": "log 2"},
      {"measurement": "light to heavy ratio (L/H ratio) of acetylated peptide AGTFK(ac)MVFTPK (SEQ ID NO: 606)", "setting": "Isocitrate dehydrogenase [NADP] mitochondrial [193], gene IDH2, inhibitor:DMSO", "value": 0.00, "unit": "log 2"},
      {"measurement": "light to heavy ratio (L/H ratio) of acetylated peptide TDFDKNK(ac)IWYEHR (SEQ ID NO: 555)", "setting": "Isocitrate dehydrogenase [NADP] mitochondrial [282], gene IDH2, inhibitor:DMSO", "value": 0.00, "unit": "log 2"},
      {"measurement": "light to heavy ratio (L/H ratio) of acetylated peptide AVLIDK(ac)DQSPK (SEQ ID NO: 577)", "setting": "Isoform 1 of 3-hydroxyisobutyryl-CoA hydrolase mitochondrial [353], gene HIBCH, inhibitor:DMSO", "value": 0.00, "unit": "log 2"},
      {"measurement": "light to heavy ratio (L/H ratio) of acetylated peptide […](ac)VVQER (SEQ ID NO: 318)", "setting": "Isoform 1 of 39S ribosomal protein L47 mitochondrial [144], MRPL47, drug:DMSO", "value": 0.00, "unit": "log 2"},
      {"measurement": "light to heavy ratio (L/H ratio) of acetylated peptide ATVPK(ac)TEIR (SEQ ID NO: 272)", "setting": "Isoform 1 of 40S ribosomal protein S24 [37], RPS24, drug:DMSO", "value": 0.00, "unit": "log 2"},
      {"measurement": "light to heavy ratio (L/H ratio) of acetylated peptide ISK(ac)EEAMR (SEQ ID NO: 299)", "setting": "Isoform 1 of 60S ribosomal protein L11 [159], RPL11, drug:DMSO", "value": 0.00, "unit": "log 2"},
      {"measurement": "light to heavy ratio (L/H ratio) of acetylated peptide RPEILK(ac)QEIK (SEQ ID NO: 359)", "setting": "Isoform 1 of AP-2 complex subunit beta [318], AP2B1, drug:DMSO", "value": 0.57, "unit": "log 2"},
      {"measurement": "light to heavy ratio (L/H ratio) of acetylated peptide […](ac)ANVAK (SEQ ID NO: 364)", "setting": "Isoform 1 of ATP synthase subunit d mitochondrial [58], ATP5H, drug:DMSO", "value": 0.48, "unit": "log 2"},
      {"measurement": "light to heavy ratio (L/H ratio) of acetylated peptide VPVPEDK(ac)[…] (SEQ ID NO: 290)", "setting": "Isoform 1 of ATP synthase subunit d mitochondrial [85], ATP5H, drug:DMSO", "value": 0.00, "unit": "log 2"},
      {"measurement": "light to heavy ratio (L/H ratio) of acetylated peptide GHCPPAPAK(ac)PMHPENK(ac)LTNHGK (SEQ ID NO: 366)", "setting": "Isoform 1 of B-cell CLL/lymphoma 9-like protein [36:43], BCL9L, drug:DMSO", "value": 0.63, "unit": "log 2"},
      {"measurement": "light to heavy ratio (L/H ratio) of acetylated peptide VWNYK(ac)LR (SEQ ID NO: 593)", "setting": "Isoform 1 of Coatomer subunit alpha [81], gene COPA, inhibitor:DMSO", "value": 0.00, "unit": "log 2"},
      {"measurement": "light to heavy ratio (L/H ratio) of acetylated peptide SLLK(ac)PFCAALLK (SEQ ID NO: 329)", "setting": "Isoform 1 of Cytoskeleton-associated protein 5 [438], CKAP5, drug:DMSO", "value": 0.48, "unit": "log 2"},
      {"measurement": "light to heavy ratio (L/H ratio) of acetylated peptide ELEK(ac)VCNPIITK (SEQ ID NO: 612)", "setting": "Isoform 1 of Heat shock cognate 71 kDa protein [601], gene HSPA8, inhibitor:DMSO", "value": 0.00, "unit": "log 2"},
      {"measurement": "light to heavy ratio (L/H ratio) of acetylated peptide DVSYQGGK(ac)SIK (SEQ ID NO: 571)", "setting": "Isoform 1 of Histone-lysine N-methyltransferase MLL3 [758], gene MLL3, inhibitor:DMSO", "value": 0.00, "unit": "log 2"},
      {"measurement": "light to heavy ratio (L/H ratio) of acetylated peptide TLVLSDK(ac)HSPQK (SEQ ID NO: 523)", "setting": "Isoform 1 of Histone-lysine N-methyltransferase MLL3 [2809], gene MLL3, inhibitor:DMSO", "value": 0.00, "unit": "log 2"},
      {"measurement": "light to heavy ratio (L/H ratio) of acetylated peptide LVAENK(ac)FGK (SEQ ID NO: 296)", "setting": "Isoform 1 of Hydroxyacyl-coenzyme A dehydrogenase mitochondrial [301], HADH, drug:DMSO", "value": 0.00, "unit": "log 2"},
      {"measurement": "light to heavy ratio (L/H ratio) of acetylated peptide K(ac)[…] (SEQ ID NO: 316)", "setting": "Isoform 1 of L-lactate dehydrogenase A chain [318], LDHA, drug:DMSO", "value": 0.00, "unit": "log 2"},
      {"measurement": "light to heavy ratio (L/H ratio) of acetylated peptide INK(ac)ALDK (SEQ ID NO: 344)", "setting": "Isoform 1 of Myosin-9 [435], MYH9, drug:DMSO", "value": 0.43, "unit": "log 2"},
      {"measurement": "light to heavy ratio (L/H ratio) of acetylated peptide FYK(ac)[…] (SEQ ID NO: 596)", "setting": "Isoform 1 of N-alpha-acetyltransferase 50 NatE catalytic subunit [37], gene NAA50, inhibitor:DMSO", "value": 0.00, "unit": "log 2"},
      {"measurement": "light to heavy ratio (L/H ratio), log 2 scale, acetylated peptide […](ac)SK (SEQ ID NO: 767)", "setting": "Isoform 1 of Peripherin [288], gene PRPH, drug:DMSO", "value": 0.00}
    ]}
  ]
}
